From patent publication US8604053B2, “TRPV1 antagonists” (AbbVie Inc., priority 2008, dated 2013)

Columns and labels:
CYP2C9 = molecular target: T1, CYP2C9 (Homo sapiens, UniProt P11712); assay: CYP2C9 inhibition assay; assay type: in vitro ADME; conditions: human liver microsomes, substrate Luciferin-H; for inhibition at 25 min, 2.2 µM: pH 7.4, probe Luciferin-H (100 μM final), read-out: CYP2C9 % inh @ 2.2 μM
T1 construct: human liver microsomes (BD Gentest); tissue BD Gentest; host or cells: human liver microsomes
Description: (§1) Stock solutions of test compounds were assayed in 96-well format for their ability to inhibit CYP2C9, CYP2D6, or CYP3A4 mediated metabolism of test substrates. Luciferin-H was used as the substrate for CYP2C9; 3-[2-(N,N-diethyl-N-methylammonium)ethyl]-7-methoxy-4-methylcoumarin (AMMC) was used as the substrate for CYP2D6; 7-benzyloxyquiniline (BZQ) was used as the substrate for CYP3A4. For each subtype, positive controls (sulphaphenazole in the case of CYP2C9; quinidine in the case of CYP2D6, ketoconazole in the case of CYP3A4) were used to validate assay results run in duplicate.
(§2) Pre-Incubation Mixture Preparation for CYP2C9 and CYP2D6: A pre-incubation mixture was prepared by combining 100 mM phosphate buffer (9.12 mL; pH 7.4), human liver microsomes (BD Gentest, 240 itt; final concentration: 0.4 mg/mL), and 10 mM nicotinamide adenine dinucleotide phosphate in 65.4 mM MgCl2 hexahydrate (120 μL; final concentration: 125 μM and 818 μM, respectively). To this was mixture is added a ‘regeneration’ mixture (120 μL) of 333 mM glucose-6-phosphate and 40 U/mL glucose-6-phosphate dehydrogenase in 5 mM sodium citrate (final concentration: 4 mM, 0.5 U/mL, and 0.06 mM, respectively).
Substrate Mixture Preparation for CYP2C9: To a solution of 25 mM phosphate buffer, (2.16 mL, pH 7.4) was added 5 mM Luciferin-H (Promega P450 Glo Assay V8792, 240 μL; final solution concentration 0.5 mM, final assay concentration 100 μM).
CYP2C9 Inhibiton Assay: To each well in the assay plate containing varying concentrations of test compound or control compound in DMSO (10 μL) Pre-Incubation Mixture (40 itt) was added to the wells and the assay plate was pre-incubated for 10 minutes at 37° C., with shaking or rocking. CYP2C9 Substrate Mixture (10 μL) was added to all wells and the assay plate was incubated for an additional 25 minutes at 37° C., with shaking or rocking. Final DMSO concentration was 1%. Luciferin-H detection reagent (Promega kit V8792, 50 μL) was added to all wells. The plate was then vortexed at ambient temperature for between 20 minutes and 2 hours, and the luminescence of each well was then read and recorded.

CYP2D6 = molecular target: T2, CYP2D6 (Homo sapiens, UniProt P10635); assay: in vitro; assay type: in vitro ADME; conditions: microsomes; for inhibition at 25 min, 2.2 µM: human, pH 7.4
T2 construct: human liver microsomes (BD Gentest); tissue BD Gentest; host or cells: human liver microsomes
Description: as §1, §2
Substrate Mixture Preparation for CYP2D6: To a solution of 100 mM phosphate buffer, (2.80 mL, pH 7.4) was added 10 mM AMMC in acetonitrile (14 itt; final solution concentration 0.05 mM, final assay concentration 10 μM).
CYP2D6 Inhibiton Assay: To each well in the assay plate containing varying concentrations of test compound or control compound in DMSO (10 μL), Pre-Incubation Mixture (40 μL) was added to the wells and the assay plate was pre-incubated for 10 minutes at 37° C., with shaking or rocking. A pre-read of each well was performed at 390 nm and 460 nm extinction/emission. CYP2D6 Substrate Mixture (10 μL) was added to all wells and the assay plate was incubated for an additional […] at 37° C., with shaking or rocking. Final DMSO concentration was 1%. A post-read of each well was then performed at 390 nm and 460 nm extinction/emission.

[1] = Rat telemetry protocol, core body temperature; assay type: in vivo; conditions: core body temperature of rats one hour post dosing, 100 μmol/kg p.o., relative to vehicle
Description: Male, Sprague Dawley rats, 225-250 grams were anesthetized with Sevoflurane (Abbott Laboratories). Rats were placed on a heating pad and covered with a sterile surgical drape. A ventral midline abdominal incision was made and sterile cotton tip applicators were used to gently move internal tissue and expose the abdominal aorta for implantation of the telemetry catheter (Data Sciences International; TL11M2-050-PXT). Blood flow was temporarily stopped to the lower extremities (5-7 min) with Diffenbach clamps to allow the insertion of the telemetry catheter into the abdominal aorta. Once inserted, a sterile cellulose patch was placed over the catheter/aorta and secured using a small amount of tissue adhesive (Vetbond, 3M). Once catheter placement was complete, the clamps were removed and blood flow was restored to the lower extremities. Thetransmitter was placed in the intraperitoneal cavity. The transmitter suture rib was sewn into the abdominal sutures to secure it in place. The skin was closed using sterile wound clips and the animal removed from Sevoflurane. Buprenex ([…] s.c.; Phoenix) was administered for post-operative analgesia. Animals were maintained on a heating pad until ambulatory, and then individually housed with food and water ad lib. Surgical staples were removed after 7-10 days post-implantation. Rats were allowed a 2-week post-surgical recovery period before treatment with test compound. Oral dosing (p.o.) was at time zero, with rats receiving a single dose of vehicle (10% EtOH, 20% Tween-80, 70% PEG-400) or a 100 μmol/kg dose of compound dissolved in vehicle. Temperature measurements were recorded every 15 minutes for the duration of the study (24 hours).
Representative compounds described herein have the novel property of having limited transient temperature effect on core body temperature of a mammal (e.g. rats). For example, compounds tested alter core body temperature of rats by less than about +0.5° C. at about 1 hour after administration of a single dose (100 μmol/kg) of the test compounds orally, for example, in the range from about −2.5° C. to less than about +0.5° C., from about −0.5° C. to less than about +0.5° C.; or from about −0.3° C. to about +0.3° C.
The term “core body temperature” as used herein, means the temperature measured in the intraperitoneal cavity.

[2] = Assessment of hemodynamic profile in anesthetized rat; assay type: in vivo; conditions: i.v. infusion 3, 10 and 30 mg/kg/30 minutes/dose, relative to vehicle control group
Description: Male Sprague-Dawley rats were anesthetized with Inactin, instrumented, and allowed to stabilize. Following a 30 minute baseline period, test compound was infused via intravenous administration at 3, 10, and 30 mg/kg/30 minutes/dose in a low volume PEG-400 vehicle (1 mL/kg) or 20:40:40 dimethylacetamide:propylene glycol:PEG-400 vehicle (1 mL/kg). A separate group of animals received infusion of vehicle alone. Mean arterial pressure (MAP) and heart rate (HR) were observed and recorded.

T2 sequence (P10635 whole entry): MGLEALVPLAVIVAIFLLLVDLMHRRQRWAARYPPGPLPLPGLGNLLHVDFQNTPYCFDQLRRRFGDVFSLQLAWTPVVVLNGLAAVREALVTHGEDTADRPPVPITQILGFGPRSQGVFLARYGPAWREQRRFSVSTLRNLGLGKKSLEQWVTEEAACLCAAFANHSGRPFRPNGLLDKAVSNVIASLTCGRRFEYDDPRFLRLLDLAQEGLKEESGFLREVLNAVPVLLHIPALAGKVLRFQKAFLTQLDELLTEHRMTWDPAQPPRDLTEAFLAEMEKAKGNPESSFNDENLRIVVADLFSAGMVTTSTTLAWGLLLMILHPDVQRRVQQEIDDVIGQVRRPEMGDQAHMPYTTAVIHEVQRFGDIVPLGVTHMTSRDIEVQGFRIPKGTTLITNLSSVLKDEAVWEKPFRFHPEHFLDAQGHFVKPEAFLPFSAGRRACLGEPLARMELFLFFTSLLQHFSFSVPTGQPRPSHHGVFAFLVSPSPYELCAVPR
T1 sequence (P11712 whole entry): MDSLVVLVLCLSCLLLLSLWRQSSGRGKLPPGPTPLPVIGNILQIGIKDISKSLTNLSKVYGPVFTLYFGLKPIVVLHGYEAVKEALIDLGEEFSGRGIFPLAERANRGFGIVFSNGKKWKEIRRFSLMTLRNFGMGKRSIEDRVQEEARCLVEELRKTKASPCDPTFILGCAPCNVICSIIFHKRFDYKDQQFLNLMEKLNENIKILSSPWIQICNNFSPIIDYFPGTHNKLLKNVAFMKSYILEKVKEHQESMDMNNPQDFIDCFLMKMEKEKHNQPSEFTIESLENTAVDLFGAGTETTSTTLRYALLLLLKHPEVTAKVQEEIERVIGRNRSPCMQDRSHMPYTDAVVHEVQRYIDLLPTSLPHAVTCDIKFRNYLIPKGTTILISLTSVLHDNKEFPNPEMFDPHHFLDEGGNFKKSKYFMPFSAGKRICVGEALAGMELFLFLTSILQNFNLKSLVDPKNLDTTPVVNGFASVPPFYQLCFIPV

Row | Compound | inhibition at 25 min, 2.2 µM (CYP2C9) [%] | inhibition at 25 min, 2.2 µM (CYP2D6) [%] | CYP2C9 % inh @ 2.2 μM (CYP2C9) [%] | CYP2D6 % inh @ 2.2 μM) (CYP2D6) [%] | Δ Temp (° C.) [1] [°C] | Change in MAP or HR ≧ 15% ? [2]
1 | Cc1cc2c(NC(=O)N[C@@H]3CC(CF)(CF)Oc4c(Cl)cccc43)cccc2cn1 [Example 91, N-[(4R)-8-chloro-2,2-bis(fluoromethyl)-3,4-dihydro-2H-chromen-4-yl]-N′-(3-methylisoquinolin-5-yl)urea] | 13 | 19 | – | – | −0.1 | –
2 | Cc1cc2c(NC(=O)N[C@@H]3C[C@@](C)(CF)Oc4cc(Cl)ccc43)cccc2cn1 (single isomer, unassigned) [Example 122] | 20 | 5 | – | – | 0.0 | No (an observed increase or decrease of less than or equal to 15% in MAP (mean arterial pressure) or HR (heart rate) in the test group of animals relative to the vehicle control group is indicated as “No” in the table)
3 | N-[(4R)-2,2-diethyl-6-fluoro-3,4-dihydro-2H-chromen-4-yl]-N-(3-methylisoquinolin-5-yl)urea [Example 56] | – | – | 20 | 14 | 0.2 | No (an observed increase or decrease of less than or equal to 15% in MAP (mean arterial pressure) or HR (heart rate) in the test group of animals relative to the vehicle control group is indicated as “No” in the table)
4 | CC1(C)C[C@@H](NC(=O)Nc2cccc3cnccc23)c2ccc(F)cc2O1 [Example 23, N-[(4R)-7-fluoro-2,2-dimethyl-3,4-dihydro-2H-chromen-4-yl]-N′-isoquinolin-5-ylurea] | 56 | – | – | – | −0.7 | –
5 | Cc1cc2c(NC(=O)N[C@@H]3CC(CF)(CF)Oc4c(OC(F)(F)F)cccc43)cccc2cn1 [Example 87, N-[(4R)-2,2-bis(fluoromethyl)-8-(trifluoromethoxy)-3,4-dihydro-2H-chromen-4-yl]-N′-(3-methylisoquinolin-5-yl)urea] | 25 | 9 | – | – | −2.0 | –
6 | CCCC1(CCC)C[C@@H](NC(=O)Nc2cccc3cnc(C)cc23)c2cccc(F)c2O1 [Example 68, N-[(4R)-8-fluoro-2,2-dipropyl-3,4-dihydro-2H-chromen-4-yl]-N′-(3-methylisoquinolin-5-yl)urea] | 13 | 0 | – | – | 0.1 | –
7 | CC1(C)C[C@@H](NC(=O)Nc2cccc3cnccc23)c2ccccc2O1 [Example 27, N-[(4R)-2,2-dimethyl-3,4-dihydro-2H-chromen-4-yl]-N′-isoquinolin-5-ylurea] | 48 | – | – | – | −1.0 | –
8 | Cc1cc2c(NC(=O)N[C@@H]3C[C@](C)(CF)Oc4c(F)cccc43)cccc2cn1 [Example 126, N-[(2R,4R)-8-fluoro-2-(fluoromethyl)-2-methyl-3,4-dihydro-2H-chromen-4-yl]-N′-(3-methylisoquinolin-5-yl)urea] | 0 | 0 | – | – | 0.0 | –

Second part, led by results:

Row | inhibition at 25 min, 2.2 µM (CYP2C9) [%] | inhibition at 25 min, 2.2 µM (CYP2D6) [%] | CYP2C9 % inh @ 2.2 μM (CYP2C9) [%] | CYP2D6 % inh @ 2.2 μM) (CYP2D6) [%] | Compound | Δ Temp (° C.) [1] [°C] | Change in MAP or HR ≧ 15% ? [2]
9 | 9 | 0.23 | – | – | Cc1cc2c(NC(=O)N[C@@H]3C[C@@](C)(CF)Oc4c(F)cccc43)cccc2cn1 [Example 128, N-[(2S,4R)-8-fluoro-2-(fluoromethyl)-2-methyl-3,4-dihydro-2H-chromen-4-yl]-N′-(3-methylisoquinolin-5-yl)urea] | −0.1 | –
10 | 19 | 0.68 | – | – | CCC1(CC)C[C@@H](NC(=O)Nc2cccc3cnc(Cl)cc23)c2cccc(F)c2O1 [Example 81, N-(3-chloroisoquinolin-5-yl)-N′-[(4R)-2,2-diethyl-8-fluoro-3,4-dihydro-2H-chromen-4-yl]urea] | −0.5 | –
11 | 5.3 | 0 | – | – | CCC1(CC)C[C@@H](NC(=O)Nc2cccc3cnc(C)cc23)c2ccc(Cl)cc2O1 [Example 69, N-[(4R)-7-chloro-2,2-diethyl-3,4-dihydro-2H-chromen-4-yl]-N′-(3-methylisoquinolin-5-yl)urea] | 0.1 | –
12 | 5.2 | 16 | – | – | Cc1cc2c(NC(=O)N[C@@H]3CC(C)(C)Oc4c(OC(F)(F)F)cccc43)cccc2cn1 [Example 94, N-[(4R)-2,2-dimethyl-8-(trifluoromethoxy)-3,4-dihydro-2H-chromen-4-yl]-N′-(3-methylisoquinolin-5-yl)urea] | −2.0 | –
13 | – | – | 50 | 100 | N-[(4R)-6,8-difluoro-2,2-dimethyl-3,4-dihydro-2H-chromen-4-yl]-N′-isoquinolin-5-ylurea [Example 17] | −1.5 | –
14 | 39 | 97 | – | – | CC1(C)C[C@@H](NC(=O)Nc2cccc3cnccc23)c2ccc(C(F)(F)F)cc2O1 [Example 34, N-[(4R)-2,2-dimethyl-7-(trifluoromethyl)-3,4-dihydro-2H-chromen-4-yl]-N′-isoquinolin-5-ylurea] | −1.6 | –
15 | – | – | 0.36 | 0.87 | N-[(4R)-7-fluoro-2,2,8-trimethyl-3,4-dihydro-2H-chromen-4-yl]-N-(3-methylisoquinolin-5-yl)urea [Example 111] | −1.3 | –
16 | 13 | 20 | – | – | Cc1cc2c(NC(=O)N[C@@H]3CC(CF)(CF)Oc4cc(Br)ccc43)cccc2cn1 [Example 102, N-[(4R)-7-bromo-2,2-bis(fluoromethyl)-3,4-dihydro-2H-chromen-4-yl]-N′-(3-methylisoquinolin-5-yl)urea] | −0.7 | –
